According to the supplement of paper PMC5908809:

Columns and labels:
[1] = system: normal NK cells expanded with K562-aAPC; test: percent inhibition of viability; higher = more inhibition; conditions: 72 h, IL-2 2.5 ng/mL
Description: (§1)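 Drug sensitivity and resistance testing on K562-aAPC-expanded normal NK cells: 5 concentrations (10-fold steps over a 10,000-fold range), 72 h at 37 °C, viability by CellTiter-Glo normalised to DMSO and benzethonium chloride controls; DSS from the fitted curve.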

[2] = system: IMC-1 (IL-2 20 ng/mL); test: as above; conditions: 72 h
[3] = system: normal primary NK cells, pool 2 (3 donors) (IL-2 2.5 ng/mL); test: as above; conditions: 72 h
[4] = system: normal primary NK cells, pool 3 (3 donors) (IL-2 2.5 ng/mL); test: as above; conditions: 72 h
[5] = system: normal NK cells expanded with K562-aAPC; test: drug sensitivity score (DSS) (DSS units); higher = more sensitive; extreme values may be limits of the assay; conditions: 72 h; IL-2 2.5 ng/mL
Description: as §1

[6] = system: IMC-1 (IL-2 20 ng/mL); test: as above; conditions: 72 h
[7] = system: normal primary NK cells, pool 2 (3 donors) (IL-2 2.5 ng/mL); test: as above; conditions: 72 h
[8] = system: normal primary NK cells, pool 3 (3 donors) (IL-2 2.5 ng/mL); test: as above; conditions: 72 h
[9] = system: DERL-7 (IL-2 2.5 ng/mL); test: percent inhibition of viability; higher = more inhibition; conditions: 72 h
[10] = system: KAI3 (IL-2 2.5 ng/mL); test: as above; conditions: 72 h
[11] = system: KHYG-1 (IL-2 2.5 ng/mL); test: as above; conditions: 72 h
[12] = system: NK-92 (IL-2 2.5 ng/mL); test: as above; conditions: 72 h
[13] = system: NK-YS (IL-2 2.5 ng/mL); test: as above; conditions: 72 h
[14] = system: NKL (IL-2 2.5 ng/mL); test: as above; conditions: 72 h
[15] = system: SNK-6 (IL-2 2.5 ng/mL); test: as above; conditions: 72 h
[16] = system: YT (IL-2 2.5 ng/mL); test: as above; conditions: 72 h
[17] = system: normal primary NK cells, pool 1 (3 donors) (IL-2 2.5 ng/mL); test: as above; conditions: 72 h
[18] = system: normal primary NK cells, pool 1 (3 donors), resting (IL-2 0 ng/mL); test: as above; conditions: 72 h
[19] = system: DERL-7 (IL-2 2.5 ng/mL); test: drug sensitivity score (DSS) (DSS units); higher = more sensitive; extreme values may be limits of the assay; conditions: 72 h
[20] = system: KAI3 (IL-2 2.5 ng/mL); test: as above; conditions: 72 h
[21] = system: KHYG-1 (IL-2 2.5 ng/mL); test: as above; conditions: 72 h
[22] = system: NK-92 (IL-2 2.5 ng/mL); test: as above; conditions: 72 h
[23] = system: NK-YS (IL-2 2.5 ng/mL); test: as above; conditions: 72 h
[24] = system: NKL (IL-2 2.5 ng/mL); test: as above; conditions: 72 h
[25] = system: SNK-6 (IL-2 2.5 ng/mL); test: as above; conditions: 72 h
[26] = system: YT (IL-2 2.5 ng/mL); test: as above; conditions: 72 h
[27] = system: normal primary NK cells, pool 1 (3 donors) (IL-2 2.5 ng/mL); test: as above; conditions: 72 h
[28] = system: normal primary NK cells, pool 1 (3 donors), resting (IL-2 0 ng/mL); test: as above; conditions: 72 h

CCN(CC)CCCC(C)Nc1ccnc2cc(Cl)ccc12 (stereo not drawn) [Chloroquine] (max concentration tested 100000 nM)
percent inhibition of viability [%]
Conditions	10 nM	100 nM	1000 nM	10000 nM	100000 nM
[1]	-7.98	-8.65	-3.82	76	101
[2]	-9.53	-2.15	-3.29	-3.07	99.8
[3]	-5.74	2.44	3.84	28.9	101
[4]	-6.29	3.82	7.92	52.1	101

Conditions	drug sensitivity score
[5]	14.2
[6]	5.31
[7]	9.79
[8]	11.8

CON(C)C(=O)N1N=C(c2cc(F)ccc2F)S[C@@]1(CCCN)c1ccccc1 [ARRY-520] (max concentration tested 1000 nM)
percent inhibition of viability [%]
Conditions	[9]	[10]	[11]	[12]	[13]	[14]	[15]	[16]	[17]	[18]
0.1 nM	-10.8	-7.27	-0.04	-13.1	-0.87	1.77	21	1.27	-14.6	-28.7
1 nM	1.72	-8.08	-0.06	-13.4	0.68	-1.49	12.7	1.15	-9.86	-37.1
10 nM	98.7	45.9	98.8	45.1	71.2	78.1	81.8	7.04	-12	-37.4
100 nM	100	49.6	107	92.3	77	93.3	88	65.3	2.21	-9.59
1000 nM	100	49.5	103	89.1	76.6	87.7	87.7	65.7	-7.49	-26.9

Conditions	drug sensitivity score
[19]	30.5
[20]	14.6
[21]	30.3
[22]	22.4
[23]	23.1
[24]	26
[25]	27.8
[26]	13.2
[27]	0
[28]	0

CC(C)n1nc(-c2ccc3oc(N)nc3c2)c2c(N)ncnc21 [INK128] (max concentration tested 1000 nM)
percent inhibition of viability [%]
Conditions	[9]	[10]	[11]	[12]	[13]	[14]	[15]	[16]	[17]	[18]
0.1 nM	-4.21	-5.24	-4.72	-2.13	-11.2	0.39	-24	-1.84	-6.36	-19.8
1 nM	-1.17	-1.02	1.98	9.63	-5.11	1.73	-3.64	1.95	5.5	6.92
10 nM	39.4	24.1	3.77	22.5	6.74	38.8	15.8	15.8	19.8	15.4
100 nM	76.1	54.6	33	60.8	51.9	63.9	45.9	65.5	31.3	17.9
1000 nM	91.4	70.3	83.9	74.7	71.6	70.2	41.9	78	40.5	34.9

Conditions	drug sensitivity score
[19]	19.2
[20]	13.1
[21]	8.73
[22]	14.1
[23]	10.7
[24]	17.1
[25]	10.6
[26]	14.1
[27]	7.91
[28]	4.47

c1cc(CN2CCCNCCNCCCNCC2)ccc1CN1CCCNCCNCCCNCC1 [Plerixafor] (max concentration tested 10000 nM)
percent inhibition of viability [%]
Conditions	1 nM	10 nM	100 nM	1000 nM	10000 nM
[1]	-8.84	-11.8	-6.04	-7.74	-11.7
[2]	-6.62	-2.25	-2.63	-6.11	12
[3]	-13.2	-6.73	-6.7	-15	-10.7
[4]	-11.8	-3.1	-2.77	-16.3	-17.5

Conditions	drug sensitivity score
[5]	0
[6]	0.01
[7]	0
[8]	0
